What all share (type): cell-based, Human cytomegalovirus (HCMV)
Data set [1] relates to HCMV infection of ARPE19 epithelial cells. As to the kind of experiment: Peptide blocking assay, infection of ARPE19 cells (percent GFP or IE positive cells). Particulars: short peptides 150 uM preincubated with TB40E, ARPE19, MOI=2.0, 2 dpi. On the procedure: (A) Different amounts of peptide 1 were preincubated with TB40E-GFP virus and the mixture applied to ARPE19. Viral DNA levels were quantified by qPCR. (B) The results in (A) are presented as the relative amount of viral DNA relative to the DMSO control. (C) TB40E-GFP virus was preincubated with peptide 1 (100 μg/ml), or DMSO, followed by infection of ARPE19 cells (MOI=2.0). Cells were imaged for GFP expression at 2 dpi (D2) and 7 dpi (D7). (D) TB40E-GFP or BADrUL131-GFP virus, both expressing PC, were preincubated with peptide 1 (100 μg/ml), or DMSO prior to infection of ARPE19 cells (MOI=2.0). Cells were fixed and imaged for GFP at 2 dpi. All data represent the mean of n=3 experiments+/−SD. (E) Culture media supernatants from (C) were harvested on the indicated dpi and assayed for infectious virus by plaque assay. Values indicate the mean percent infected cells of 3 independent experiments±SD. ****p<0.0001.
FIG. 9. […] TB40E-GFP encoding the viral PC or AD169 lacking PC were preincubated with peptide 1 (100 μg/ml) and then infected on ARPE19 epithelial cells or HEL fibroblasts (MOI=2.0). Cells were fixed, permeabilized, stained for DNA, immunostained for anti-immediate early protein (IE) and imaged. […] Values indicate the mean percentage of infected cells of n=3 experiments±SD. **p<0.01; ***p<0.001.
FIG. 11. Each of the short peptides (aa sequences listed in Table 4; 150 uM), Peptide 1 (32.6 μM), or DMSO alone was preincubated with TB40E virus, followed by infection of ARPE19 cell lines (MOI=2.0). Cells were fixed and imaged for GFP and DNA at 2 dpi. Quantitation data indicating the percent GFP positive cells.
Live cell images: Phase and GFP signal images were captured on a Zeiss microscope (Zeiss AxioObserver Z1) at 10× magnification. Fixed cell images: cells were washed with PBS (Life Technologies) and fixed with 4% formalin in PBS (Sigma). DNA was stained with Hoechst 33342 dye (Life Technologies). The fixed cells were imaged using an Image Xpress Micro (IXM, Molecular Devices) at 4× magnification. Images were analyzed with MetaXpress imaging software (Molecular Devices) to determine the total cells per well and the percentage of infected cells (GFP positive) in each well. For IE immunostaining: fixed cells were permeabilized with 0.2% Triton X-100 (Sigma) in PBS. Blocking was performed with 1% BSA (Calbiochem, 2930) in PBS with 0.3M glycine (Sigma). Cells were then incubated in antibody targeting the major IE proteins (IE, EMD Millipore, MAB8131) diluted in 1% BSA in PBS. Cells were then incubated in secondary antibody (Texas Red-conjugated goat anti-mouse IgG2A, Southern Biotech, 1080-07) in PBS containing 1% BSA.
At 2 dpi with HCMV TB40E-GFP virus at the indicated MOI, ARPE19 cells were fixed with 4% formaldehyde and nuclei stained with Hoechst 33342. ARPE19 cells were imaged on an automated IXM scanning microscope. Numbers of infected cells were determined by calculating the percent GFP positive cells using MetaXpress software.
The noted synthetic peptides (100 ug/ml each or as described) were mixed with TB40E-GFP virus (1.2×10^6 PFU) and incubated at 37° C. for 2 h by rocking. The resulting samples were then subjected to the virus binding or infection assay.

Data set [2] concerns TB40E-GFP infection of ARPE19 cells. As to the kind of experiment: cAMP/PKA signaling pathway modulation, TB40E-GFP infection. The conditions noted are these: H-89 20 μM, SQ22536 150 μM, FSK 20 μM, 2 h prior to infection, MOI=4.0, 48 hpi. On the procedure: FIGS. 7A-C. HCMV receptor engagement and cAMP/PKA signaling. ARPE19 or OR14I1 knock down cells were pretreated with phosphokinase A (PKA) inhibitor H-89 (20 μM), adenylate cyclase antagonist, SQ22536 (150 μM), or adenylate cyclase activator, forskolin (FSK; 20 μM) for 2 h prior to TB40E-GFP infection (MOI=4.0). Cells were fixed at 48 hpi and images taken.
H-89, SQ22536 and Foskolin were purchased from Sigma-Aldrich Chemicals. Wild type ARPE19 or ARPE19 cells expressing the indicated shRNAs were treated with protein kinase A (PKA) inhibitor H-89 (20 μM), adenylate cyclase antagonist, SQ22536 (150 μM), or adenylate cyclase activator, forskolin (FSK; 20 μM) for 2 h prior to infection with TB40E-GFP (MOI=2.0). After 2 h, the medium was then replaced by the standard medium that also contained the noted small molecules. Images were taken at 2 dpi.
HCMV receptor engagement and cAMP/PKA signaling was also evaluated. ARPE19 or OR14I1 knock down cells were pretreated with phosphokinase A (PKA) inhibitor H-89 (20 μM), adenylate cyclase antagonist, SQ22536 (150 μM), or adenylate cyclase activator, forskolin (FSK; 20 μM) for 2 h prior to TB40E-GFP infection (MOI=4.0).

Data set [3] relates to TB40E-GFP entry into ARPE19 cells. As to the kind of experiment: Cell-internalized virus assay in shRNA transduced ARPE19 cells. The conditions noted are these: shRNA transduced ARPE19, TB40E-GFP MOI of 2.0, on ice 1 h then 37° C. for 2 h. Here is the method:
In parallel to the virus binding assay, a subset of plates were then shifted to 37° C. for 2 h to allow virus entry. […] After 10 cold PBS washes, internalized viral DNA levels were quantified by qPCR.
To determine whether human OR14I1 and DMBT1 are required for optimal binding of HCMV TB40E-GFP to cells, shPDGFRA, shOR14I1 and shDMBT1 transduced ARPE19 cells were infected with TB40E-GFP at an MOI of 2.0 on ice for 1 h. The cells were washed ten times with cold PBS, and viral DNA associated with the cells was quantified by qPCR. As shown in FIGS. 3A-B, OR14I1 and DMBT1 are required for optimal binding of HCMV TB40E-GFP to cells. In addition, shPDGFRA, shDMBT1 and shOR14I1 transduced ARPE19 cells were infected with TB40E-GFP at an MOI of 2.0 on ice for 1 h. The cells were then shifted to 37° C. for 2 h to allow the virus entry. […] After 10 cold PBS washes, internalized viral DNA levels were quantified by qPCR.

Data set [4] deals with TB40E-GFP infection of ARPE19 cells. Nature of the data set: shRNA knock down ARPE19 cells infected with TB40E-GFP. Particulars: for percentage of GFP positive cells (flow cytometry): shRNA knock down ARPE19, TB40E-GFP, 48 hpi; for resistance to TB40E-GFP infection (GFP images): shRNA knock down ARPE19 cells, MOI=0.1, 48 hpi. On the procedure:
(§1) Each shRNA was cloned into the pLKO.1-blast (Addgene) lentiviral vector followed by viral packing and multiple rounds of amplification in 293T cells. Essentially, the pLKO.1-blast constructs and packaging plasmids were co-transfected into 293T cells with the resulting supernatant harvested at 36 h. Lentiviruses were recovered by ultracentrifugation for 2 h at 28,000 rpm in a Beckman SW28 rotor and resuspensed in DMEM. The lentiviruses were used to transduce the ARPE19 or HEL cells to generate shRNA knock down cells. Populations of stable cells were selected with blasticidin (Invitrogen, 10 μg/ml) for 1 week.
48 h after HCMV TB40E-GFP infection, ARPE19 cells were then treated with cell dissociation buffer (Gibco) and incubated at 37° C. for 10 min. Samples were then washed three times with cold buffer and fixed with cold 2% paraformadehyde in PBS. Cells were pelleted and washed and resuspended in washing buffer (0.1% tween-20 in PBS). Finally, the cells were resuspended in staining buffer (1% BSA, 0.1% sodium azide in HBSS) after pelleting again and immunofluorescent cells analyzed using a MACSQUANT analyzer 10 (Miltenyi Biotec) using blue laser 488 nm and filter 525/50 nm. Results were analyzed using FLOWJO V9.9 image analysis software.
(§2) The role of these proteins in fibroblast cell-type specific tropism in HCMV infection was also evaluated. The sgRNA knock out HEL-cas9 fibroblast pools were infected with HCMV Ad169 virus at MOI=3, and images were taken 48 hpi. […] HCMV infection resistance was also evaluated after knockdown using shRNA, in epithelial cells. The shOR14I1, shDMBT1 or shPDGFRA shRNA knock down ARPE19 cells were infected with TB40E-GFP virus at MOI=0.1, and images were taken 48 hpi. […] Actin is included as a loading control. Resistance to CMV infection was also evaluated in shPDGFRA, shOR14I1 or shDMBT1 knockdown HEL fibroblasts. Fibroblasts were infected with Ad169 at M01=1.0, and images were taken 48 hpi. […] Western blotting was used to confirm the depletion of PDGFRA and OR14I1 in the cells used in the experiments shown in FIG. 2H; the results are shown in FIG. 2I.

For data set [5], the system named is HCMV Ad169 infection of HEL fibroblasts. Nature of the data set: shRNA knockdown HEL fibroblasts infected with Ad169. Particulars: MOI=1.0, 48 hpi. On the procedure: as §1, §2

Regarding LLMEFSGIWELQV (OR14I1 peptide 11-23aa), the “ability to inhibit HCMV infection (percent GFP positive cells)” value in data set [1] is on record as “best activity”.

Consider “LMEFSGIWELQVL (OR14I1 peptide) [Peptide 12-24]”, for which, in data set [1], the “ability to inhibit HCMV infection (percent GFP positive cells)” value is given as “best activity”.

For `O=S(=O)(NCCNC/C=C/c1ccc(Br)cc1)c1cccc2cnccc12` [Peptide H-89], the “infectivity of TB40E-GFP in ARPE19 epithelial cells” value in data set [2] is recorded as “reduced infectivity significantly”.

In the case of EFLLMEFSGIWEL (OR14I1 peptide 9-21aa), the “ability to inhibit HCMV infection (percent GFP positive cells)” value in data set [1] is “some inhibition”.

On to FLLMEFSGIWELQ (OR14I1 peptide 10-22aa), for which the “ability to inhibit HCMV infection (percent GFP positive cells)” value in data set [1] was “best activity”.

As for “GCCTTTGTACCTCTAGGAATG (expressed or natural sequence) [shPDGFRA, shRNA targeting PDGFRA, in pLKO.1-blast lentiviral vector, reference compound]”, in data set [3], the “internalized viral DNA, viral load as compared to control-infected cells” value is reported as “about 50%”. Besides, in data set [4], the “percentage of GFP positive cells (flow cytometry)” value (“percentage of GFP positive cells” below) was “significant decrease in GFP-expressing cells” and the “resistance to TB40E-GFP infection (GFP images)” value (from here on “resistance … (GFP images)”) is recorded as “resistance was seen”. Also, in data set [5], the “resistance to Ad169 infection” value is on record as “resistant to infection”.

“GGAGTCAACTGTAGCAGAAGG (expressed or natural sequence) [shDMBT1, shRNA targeting DMBT1, in pLKO.1-blast lentiviral vector]”: the “internalized viral DNA, viral load as compared to control-infected cells” value in data set [3] was “about 50%”. Moreover, in data set [4], the “percentage of GFP positive cells” value is “significant decrease in GFP-expressing cells” and the “resistance … (GFP images)” value is listed as “resistance was seen”. In addition, in data set [5], the “resistance to Ad169 infection” value is on record as “not”.

“GCAGAAGCTCCATCTCTTATC (expressed or natural sequence) [shOR14I1, shRNA targeting OR14I1, in pLKO.1-blast lentiviral vector]”: the “internalized viral DNA, viral load as compared to control-infected cells” value in data set [3] is reported as “about 50%”. In addition, in data set [4], the “percentage of GFP positive cells” value was “significant decrease in GFP-expressing cells” and the “resistance … (GFP images)” value is given as “resistance was seen”. For the same compound, the “resistance to Ad169 infection” value in data set [5] is recorded as “not”.

On to `Nc1ncnc2c1ncn2C1CCCO1` (stereo not drawn) [SQ22536, 9-(Tetrahydro-2-furanyl)-9H-purin-6-amine], for which the “infectivity of TB40E-GFP in ARPE19 epithelial cells” value in data set [2] is listed as “reduced infectivity significantly”.

(Values after US12268901B2, “Targeting cell tropism receptors to inhibit cytomegalovirus infection” (priority 2017, dated 2025).)
